{
  "source": "patent US10864245B2",
  "about": "“Activation and expansion of NKG2C+ NK cells” (Deutsches Rheuma-Forschungszentrum Berlin, priority 2018, dated 2020)",
  "key": {"[1]": {"test_system": "NKG2C+ NK cells", "assay": "In vitro culture of CD56dim NK cells from HCMV− donors with peptide-pulsed targets and IL-15 (proliferation, accumulation)", "format": "cell-based, human", "conditions": "RMA-S/HLA-E/LFA-3, IL-15, IL-12/18 during initial 20 h, 14 days", "method": "CD56^+ MACS-enriched cells from HCMV^− donors were stained with viability dye, CD3, and CD56, FACS-sorted for viable CD3^− CD56^dim NK cells, and rested overnight in complete medium. Purified CD56^dim NK cells were labeled with 2 μM CellTrace violet (Thermo Fisher) according to the manufacturer's instructions. 5×10^5 labeled NK cells were cultured with 1×10^5 peptide-pulsed […] irradiated (30 Gy) target cells in complete medium containing 10 ng/ml IL-15 (Miltenyi Biotec) in U-bottom 96-well plates (Greiner Bio-One) for the indicated times. Complete medium containing IL-15 was replaced every third to fourth day. On days 4, 7, and 11 of culture, 1×10^5 fresh peptide-pulsed irradiated target cells were added to the cultures.\nWhere indicated, 10 ng/ml IL-12 (Miltenyi Biotec) and 100 ng/ml IL-18 (MBL) were added at the start of co-cultures. After 20 h of culture, the cells were washed 3 times and resuspended in complete medium containing 10 ng/ml IL-15. Control wells without IL-12/18 were treated equally. To determine NKG2C+ NK cell numbers per μl of culture medium, CountBright Absolute Counting Beads (ThermoFisher) were used according to the manufacturer's instructions.\nProliferation and replication indices^60 of NKG2C+ cells were calculated using the proliferation analysis platform included in FlowJo v9.9 (FlowJo LLC) and normalized to those of NKG2C^− cells in the same condition."}, "[2]": {"test_system": "adaptive NKG2C+ NK cells", "assay": "Stimulation of purified NK cells with peptide-pulsed RMA-S/HLA-E (effector functions)", "format": "cell-based, human", "conditions": "RMA-S/HLA-E pulsed with 300 μM peptide; 6 h; NK cells from healthy HCMV+ individuals", "method": "HLA-E surface stabilization was induced as described previously^30. In brief, 300 μM synthetic peptides (Peptides&Elephants) were added to target cells cultured at a density of 2×10^6 cells/ml in serum-free Opti-MEM (ThermoFisher) and incubated for 16 h at 37° C. Peptide-pulsed cells were either stained for FACS analysis of HLA-E surface expression or washed with complete media and used in co-cultures. For pulse-chase experiments, cells were pulsed as above, washed twice, and resuspended in Opti-MEM without peptide. HLA-E surface expression was monitored by FACS analysis at indicated time points.\nCD56^+ MACS-enriched cells were stained with viability dye, CD3, and CD56, FACS-sorted for viable CD3^−CD56^+ NK cells, and rested overnight in complete medium. Purified NK cells were stimulated by co-culture with peptide-pulsed (300 μM) irradiated (30 Gy) target cells at a 2:1 NK:target ratio for 6 h in the presence of 300 μM synthetic peptides.\nFor blocking experiments, rested FACS-sorted viable CD3^− CD56^dim NKG2A^− NKG2C+ NK cells were treated with 20 μg/ml IgG1 isotype control or anti-CD94 antibody (both RnD Systems) for 15 min prior to start of the co-culture."}},
  "data": [
    {"sequence": "VMAPRTLVL", "values": [
      {"measurement": "NKG2C+ NK-cell absolute counts and frequencies", "setting": "[1]", "value": "increase of NKG2C+ NK-cell absolute counts as well as frequencies"},
      {"measurement": "TNF, IFN-γ, CD107a, and CCL3 expression by adaptive NKG2C+ NK cells", "setting": "[2]", "value": "differentially triggered"}
    ]}
  ]
}
